In ChEMBL document CHEMBL3885881, “DrugMatrix”:

Species: Rattus norvegicus
Test: DrugMatrix - Regimen: Daily Repeat
Assay type: toxicity, organism-based, Sprague-Dawley
Design: regimen Daily Repeat, gender Male, age 6-8 weeks
Conditions: in vivo, iv, vehicle 100 % SALINE; for ABSOLUTE BASOPHIL / ABSOLUTE EOSINOPHIL / ABSOLUTE LYMPHOCYTE / ABSOLUTE MONOCYTE / ABSOLUTE SEGMENTED NEUTROPHIL / BASOPHIL / EOSINOPHIL / ERYTHROCYTE COUNT / HEMATOCRIT / HEMOGLOBIN / LEUKOCYTE COUNT / LYMPHOCYTE / MEAN CORPUSCULAR HEMOGLOBIN / MEAN CORPUSCULAR HEMOGLOBIN CONCENTRATION / MEAN CORPUSCULAR VOLUME / MONOCYTE / NEUTROPHIL / NUCLEATED RED BLOOD CELLS / PLATELET COUNT: tissue Blood; for ALANINE AMINOTRANSFERASE / ALBUMIN / ALKALINE PHOSPHATASE / ASPARTATE AMINOTRANSFERASE / BLOOD UREA NITROGEN / CARBON DIOXIDE / CHLORIDE / CHOLESTEROL / CREATINE PHOSPHOKINASE / CREATININE / GLUCOSE / LACTATE DEHYDROGENASE / LIPASE / PHOSPHORUS / POTASSIUM / SODIUM / TOTAL BILIRUBIN / TOTAL PROTEIN / URIC ACID: tissue Plasma
[1] = 12 mg/kg, 120 h, dose level High, time 5 day
[2] = […], 72 h, dose 1.2 mg/Kg, dose level Low, time 3 day
[3] = […], 120 h, dose 1.2 mg/Kg, dose level Low, time 5 day

In the case of `Cc1c(N)nc([C@H](CC(N)=O)NC[C@H](N)C(N)=O)nc1C(=O)N[C@H](C(=O)N[C@H](C)[C@@H](O)[C@H](C)C(=O)N[C@H](C(=O)NCCc1nc(-c2nc(C(=O)NCCC[S+](C)C)cs2)cs1)[C@@H](C)O)[C@@H](O[C@@H]1O[C@@H](CO)[C@@H](O)[C@H](O)[C@@H]1O[C@H]1O[C@H](CO)[C@@H](O)[C@H](OC(N)=O)[C@@H]1O)c1c[nH]cn1.[Br-]` [BLEOMYCIN A2], the “ABSOLUTE BASOPHIL” value [1] is reported as 0 CELLS/uL, the “ABSOLUTE EOSINOPHIL” value [1] is reported as 50 CELLS/uL and the “ABSOLUTE LYMPHOCYTE” value [1] is reported as 10142.67 CELLS/uL. The “ABSOLUTE MONOCYTE” value [1] was 392.67 CELLS/uL, the “ABSOLUTE SEGMENTED NEUTROPHIL” value [1] was 1914.67 CELLS/uL and the BASOPHIL [1] was 0%. For the same compound, the EOSINOPHIL [1] was 0.33%, the “ERYTHROCYTE COUNT” value [1] was 6.36 x10E6/uL and the HEMATOCRIT [1] was 38.97%. For the same compound, the HEMOGLOBIN [1] was 15.17 G/DL, the “LEUKOCYTE COUNT” value [1] was 12.5 x10E3/uL and the LYMPHOCYTE [1] was 80%. The “MEAN CORPUSCULAR HEMOGLOBIN” value [1] was 23.87 pg, the “MEAN CORPUSCULAR HEMOGLOBIN CONCENTRATION” value [1] was 38.93 G/DL and the “MEAN CORPUSCULAR VOLUME” value [1] was 61.27 fL. The MONOCYTE [1] was 3.33%, the NEUTROPHIL [1] was 16.33% and the “NUCLEATED RED BLOOD CELLS” value [1] was 0.33 /100WBC. The “PLATELET COUNT” value [1] was 1342 x10E3/uL, the “ALANINE AMINOTRANSFERASE” value [1] was 41.67 u/L and the ALBUMIN [1] was 3.83 G/DL. For the same compound, the “ALKALINE PHOSPHATASE” value [1] was 202.67 u/L, the “ASPARTATE AMINOTRANSFERASE” value [1] was 100.67 u/L and the “BLOOD UREA NITROGEN” value [1] was 16.67 mg/dL. For the same compound, the “CARBON DIOXIDE” value [1] was 29 mmol/L, the CHLORIDE [1] was 101 MEQ/L and the CHOLESTEROL [1] was 54.33 mg/dL. The “CREATINE PHOSPHOKINASE” value [1] was 1017.67 u/L, the CREATININE [1] was 0.13 mg/dL and the GLUCOSE [1] was 145.67 mg/dL. The “LACTATE DEHYDROGENASE” value [1] was 563.33 u/L, the LIPASE [1] was 10 u/L and the PHOSPHORUS [1] was 10.83 mg/dL. The POTASSIUM [1] was 6.11 MEQ/L, the SODIUM [1] was 142.27 MEQ/L and the “TOTAL BILIRUBIN” value [1] was 0.1 mg/dL. For the same compound, the “TOTAL PROTEIN” value [1] was 6 G/DL, the “URIC ACID” value [1] was 1.3 mg/dL and the “ABSOLUTE BASOPHIL” value [2] was 0 CELLS/uL. The “ABSOLUTE EOSINOPHIL” value [2] was 212 CELLS/uL, the “ABSOLUTE LYMPHOCYTE” value [2] was 11289 CELLS/uL and the “ABSOLUTE MONOCYTE” value [2] was 312.33 CELLS/uL. For the same compound, the “ABSOLUTE SEGMENTED NEUTROPHIL” value [2] was 1786.67 CELLS/uL, the BASOPHIL [2] was 0% and the EOSINOPHIL [2] was 1.67%. For the same compound, the “ERYTHROCYTE COUNT” value [2] was 5.13 x10E6/uL, the HEMATOCRIT [2] was 35.1% and the HEMOGLOBIN [2] was 13.93 G/DL. For the same compound, the “LEUKOCYTE COUNT” value [2] was 13.6 x10E3/uL, the LYMPHOCYTE [2] was 83% and the “MEAN CORPUSCULAR HEMOGLOBIN” value [2] was 27.23 pg. The “MEAN CORPUSCULAR HEMOGLOBIN CONCENTRATION” value [2] was 39.73 G/DL, the “MEAN CORPUSCULAR VOLUME” value [2] was 68.43 fL and the MONOCYTE [2] was 2.33%. For the same compound, the NEUTROPHIL [2] was 13%, the “NUCLEATED RED BLOOD CELLS” value [2] was 0 /100WBC and the “PLATELET COUNT” value [2] was 1111 x10E3/uL. The “ALANINE AMINOTRANSFERASE” value [2] was 40.67 u/L, the ALBUMIN [2] was 4.37 G/DL and the “ALKALINE PHOSPHATASE” value [2] was 464.33 u/L. The “ASPARTATE AMINOTRANSFERASE” value [2] was 82.33 u/L, the “BLOOD UREA NITROGEN” value [2] was 13.33 mg/dL and the “CARBON DIOXIDE” value [2] was 25.33 mmol/L. The CHLORIDE [2] was 100 MEQ/L, the CHOLESTEROL [2] was 69.33 mg/dL and the “CREATINE PHOSPHOKINASE” value [2] was 261.33 u/L. The CREATININE [2] was 0.18 mg/dL, the GLUCOSE [2] was 184.67 mg/dL and the “LACTATE DEHYDROGENASE” value [2] was 180 u/L. The LIPASE [2] was 10.67 u/L, the PHOSPHORUS [2] was 11.87 mg/dL and the POTASSIUM [2] was 5.72 MEQ/L. The SODIUM [2] was 144 MEQ/L, the “TOTAL BILIRUBIN” value [2] was 0.23 mg/dL and the “TOTAL PROTEIN” value [2] was 5.97 G/DL. For the same compound, the “URIC ACID” value [2] was 1.6 mg/dL, the “ABSOLUTE BASOPHIL” value [3] was 0 CELLS/uL and the “ABSOLUTE EOSINOPHIL” value [3] was 37 CELLS/uL. The “ABSOLUTE LYMPHOCYTE” value [3] was 10260.33 CELLS/uL, the “ABSOLUTE MONOCYTE” value [3] was 119.33 CELLS/uL and the “ABSOLUTE SEGMENTED NEUTROPHIL” value [3] was 1383.33 CELLS/uL. The BASOPHIL [3] was 0%, the EOSINOPHIL [3] was 0.33% and the “ERYTHROCYTE COUNT” value [3] was 5.63 x10E6/uL. The HEMATOCRIT [3] was 35.3%, the HEMOGLOBIN [3] was 14.17 G/DL and the “LEUKOCYTE COUNT” value [3] was 11.8 x10E3/uL. For the same compound, the LYMPHOCYTE [3] was 87%, the “MEAN CORPUSCULAR HEMOGLOBIN” value [3] was 25.2 pg and the “MEAN CORPUSCULAR HEMOGLOBIN CONCENTRATION” value [3] was 40.17 G/DL. The “MEAN CORPUSCULAR VOLUME” value [3] was 62.77 fL, the MONOCYTE [3] was 1% and the NEUTROPHIL [3] was 11.67%. For the same compound, the “NUCLEATED RED BLOOD CELLS” value [3] was 0 /100WBC, the “PLATELET COUNT” value [3] was 1110.33 x10E3/uL and the “ALANINE AMINOTRANSFERASE” value [3] was 46.33 u/L. For the same compound, the ALBUMIN [3] was 4.17 G/DL, the “ALKALINE PHOSPHATASE” value [3] was 346 u/L and the “ASPARTATE AMINOTRANSFERASE” value [3] was 85 u/L. For the same compound, the “BLOOD UREA NITROGEN” value [3] was 17 mg/dL, the “CARBON DIOXIDE” value [3] was 32.33 mmol/L and the CHLORIDE [3] was 99.67 MEQ/L. The CHOLESTEROL [3] was 72.33 mg/dL, the “CREATINE PHOSPHOKINASE” value [3] was 387 u/L and the CREATININE [3] was 0.22 mg/dL. For the same compound, the GLUCOSE [3] was 142.67 mg/dL, the “LACTATE DEHYDROGENASE” value [3] was 421.33 u/L and the LIPASE [3] was 10.67 u/L. It also gave a PHOSPHORUS [3] of 12.3 mg/dL, a POTASSIUM [3] of 6.05 MEQ/L and an SODIUM [3] of 144.13 MEQ/L. For the same compound, the “TOTAL BILIRUBIN” value [3] was 0.17 mg/dL, the “TOTAL PROTEIN” value [3] was 6.1 G/DL and the “URIC ACID” value [3] was 1.27 mg/dL.
